Patent EP4483954A1 (Masarykova Univerzita, priority 2023, dated 2025)

Tests used:
Format in all cases: biochemical
PIM1 (h) = molecular target: T1, PIM1 (h) (Homo sapiens, UniProt P11309); experiment: radiometric kinase assay (KinaseProfiler, Eurofins), PIM1; settings: in vitro radiometric kinase assay, tested at 1 nM to 10 000 nM, no pre-incubation; read-out: inhibitory activities (IC50 values) PIM1
T1 construct: purchased Eurofins (KinaseProfiler)
Method: (§1) The compounds were profiled in the radiometric assays (KinaseProfiler, Eurofins).
(§2) Briefly, kinases were diluted in the buffer shown below prior to addition to the reaction mix: • CDKL3, TAF1L: 20 mM Tris/HCl pH 8.5, 0.2 mM EDTA, 0.1% β-mercaptoethanol, 0.01% Brij-35, 5% glycerol, 1 mg/ml BSA; • Haspin: 15 mM MOPS, 0.75 mM EDTA, 0.0075% Brij-35, 3.75% Glycerol, 150 mM NaCl, 0.1% β-mercaptoethanol, 1 mg/mLBSA; • CDKL4, CLK2, PIM1, TRB2: […], 1 mM EDTA, 0.01% Brij-35, 5% Glycerol, 0.1% β-mercaptoethanol, 1 mg/mL BSA.
(§3) All compounds were prepared to 50x final assay concentration in 100% DMSO. This working stock of the compound was added to the assay well as the first component in the reaction, followed by the remaining components as detailed in the general assay protocols below. There was no pre-incubation step between the compound and the kinase prior to initiation of the reaction.
PIM1 (h) was incubated with 8 mM MOPS pH 7.0, 0.2 mM EDTA, 100 µM KKRNRTLTV (SEQ ID NO. 4), 10 mM magnesium acetate and γ-^33P-ATP (specific activity and concentration as required). The reaction was initiated by the addition of the Mg/ATP mix. After incubation for 40 minutes at room temperature, the reaction was stopped by the addition of phosphoric acid to a concentration of 0.5%. An aliquot of the reaction was then spotted onto a filter and washed four times for 4 minutes in 0.425% phosphoric acid and once in methanol prior to drying and scintillation counting.
(§4) Kinase activity data were expressed as the percent remaining kinase activity in tested samples compared to the vehicle (DMSO) reactions. The compounds were tested at the following concentrations: 1 nM, 3 nM, 10 nM, 30 nM, 100 nM, 300 nM, 1000 nM, 3000 nM, and 10 000 nM; IC50 values and curve fits were then obtained.

Haspin (h) = molecular target: T2, Haspin (h) (Homo sapiens, UniProt Q8TF76); experiment: radiometric kinase assay (KinaseProfiler, Eurofins), Haspin; settings: in vitro radiometric kinase assay, tested at 1 nM to 10 000 nM, no pre-incubation; read-out: inhibitory activities (IC50 values) Haspin
T2 construct: purchased Eurofins (KinaseProfiler)
T2 sequence (Q8TF76 1-798): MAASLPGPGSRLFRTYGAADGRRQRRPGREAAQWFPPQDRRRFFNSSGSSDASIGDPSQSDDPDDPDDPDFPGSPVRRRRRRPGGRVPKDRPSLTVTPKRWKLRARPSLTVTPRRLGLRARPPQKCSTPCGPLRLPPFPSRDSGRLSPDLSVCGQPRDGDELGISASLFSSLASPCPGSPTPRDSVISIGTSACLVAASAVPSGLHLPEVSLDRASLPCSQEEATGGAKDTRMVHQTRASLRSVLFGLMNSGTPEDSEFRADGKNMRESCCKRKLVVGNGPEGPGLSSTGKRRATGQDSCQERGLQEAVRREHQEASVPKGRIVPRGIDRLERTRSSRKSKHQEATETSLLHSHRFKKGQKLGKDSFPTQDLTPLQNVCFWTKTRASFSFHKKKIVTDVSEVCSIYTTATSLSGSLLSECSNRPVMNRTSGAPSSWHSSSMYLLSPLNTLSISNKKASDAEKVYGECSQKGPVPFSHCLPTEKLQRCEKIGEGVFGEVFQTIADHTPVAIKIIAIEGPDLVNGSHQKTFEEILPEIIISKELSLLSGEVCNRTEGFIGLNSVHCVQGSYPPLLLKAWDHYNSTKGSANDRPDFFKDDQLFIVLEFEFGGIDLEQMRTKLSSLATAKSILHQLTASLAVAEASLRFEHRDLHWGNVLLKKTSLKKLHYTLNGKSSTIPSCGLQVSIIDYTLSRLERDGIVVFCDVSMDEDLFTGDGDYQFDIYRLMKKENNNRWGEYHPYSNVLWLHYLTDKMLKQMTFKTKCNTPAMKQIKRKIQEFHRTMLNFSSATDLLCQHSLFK
Summary of the method: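 Human Haspin in 8 mM MOPS pH 7.0 with 500 µM RARTLSFAEPG, 10 mM Mg acetate and γ-33P-ATP; compound added without preincubation. Reaction ran 40 min at room temperature, then filter-bound 33P was counted. Nine concentrations from 1 to 10 000 nM gave % remaining activity versus DMSO, and IC50 came from curve fit.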

CDKL3(h) = molecular target: T3, CDKL3(h) (Homo sapiens, UniProt Q8IVW4); experiment: radiometric kinase assay (KinaseProfiler, Eurofins), CDKL3; settings: in vitro radiometric kinase assay, tested at 1 nM to 10 000 nM, no pre-incubation; read-out: inhibitory activities (IC50 values) CDKL3
T3 construct: purchased Eurofins (KinaseProfiler)
Method: as §1, §2, §3
(§5) CDKL3(h) was incubated with 8 mM MOPS pH 7.0, 0.2 mM EDTA, 250 µM RRRFRPASPLRGPPK (SEQ ID NO. 1), 10 mM magnesium acetate and γ-^33P-ATP (specific activity and concentration as required). The reaction was initiated by the addition of the Mg/ATP mix. After incubation for 120 minutes at room temperature, the reaction was stopped by the addition of phosphoric acid to a concentration of 0.5%. An aliquot of the stopped reaction was spotted onto a filter and washed four times for 4 minutes in 0.425% phosphoric acid and once in methanol prior to drying and scintillation counting.
as §4

CDKL4(h) = molecular target: T4, CDKL4(h) (Homo sapiens, UniProt Q5MAI5); experiment: radiometric kinase assay (KinaseProfiler, Eurofins), CDKL4; settings: in vitro radiometric kinase assay, tested at 1 nM to 10 000 nM, no pre-incubation; read-out: inhibitory activities (IC50 values) CDKL4
T4 construct: purchased Eurofins (KinaseProfiler)
Method: as §1, §2, §3
as §5, with “CDKL4(h)” for “CDKL3(h)”
as §4

T3 sequence (Q8IVW4 whole entry): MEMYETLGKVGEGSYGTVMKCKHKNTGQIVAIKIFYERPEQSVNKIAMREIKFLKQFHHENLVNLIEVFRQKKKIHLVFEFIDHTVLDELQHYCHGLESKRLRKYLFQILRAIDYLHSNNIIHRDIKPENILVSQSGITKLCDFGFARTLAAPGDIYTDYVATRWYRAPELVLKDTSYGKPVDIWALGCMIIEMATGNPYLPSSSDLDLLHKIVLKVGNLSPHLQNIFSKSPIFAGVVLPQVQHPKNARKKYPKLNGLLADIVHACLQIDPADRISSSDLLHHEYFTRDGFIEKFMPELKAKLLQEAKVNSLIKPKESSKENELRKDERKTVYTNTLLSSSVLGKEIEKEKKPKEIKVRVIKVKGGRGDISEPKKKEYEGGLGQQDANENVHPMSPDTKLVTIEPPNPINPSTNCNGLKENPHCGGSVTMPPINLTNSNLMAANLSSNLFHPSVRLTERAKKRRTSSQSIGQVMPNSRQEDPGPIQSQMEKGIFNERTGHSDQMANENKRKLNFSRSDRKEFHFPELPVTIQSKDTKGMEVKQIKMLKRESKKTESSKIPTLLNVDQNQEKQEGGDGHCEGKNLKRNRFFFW
T4 sequence (Q5MAI5 whole entry): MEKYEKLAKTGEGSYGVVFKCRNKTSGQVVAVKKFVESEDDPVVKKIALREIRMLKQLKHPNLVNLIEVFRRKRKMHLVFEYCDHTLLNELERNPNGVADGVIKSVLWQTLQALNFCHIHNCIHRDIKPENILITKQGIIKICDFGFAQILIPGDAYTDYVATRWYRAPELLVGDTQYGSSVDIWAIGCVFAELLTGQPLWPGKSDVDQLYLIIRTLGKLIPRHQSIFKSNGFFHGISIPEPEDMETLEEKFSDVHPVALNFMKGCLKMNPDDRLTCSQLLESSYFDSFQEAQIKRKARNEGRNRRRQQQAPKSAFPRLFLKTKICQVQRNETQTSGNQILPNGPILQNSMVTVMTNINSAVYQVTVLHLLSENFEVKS
T1 sequence (P11309 whole entry): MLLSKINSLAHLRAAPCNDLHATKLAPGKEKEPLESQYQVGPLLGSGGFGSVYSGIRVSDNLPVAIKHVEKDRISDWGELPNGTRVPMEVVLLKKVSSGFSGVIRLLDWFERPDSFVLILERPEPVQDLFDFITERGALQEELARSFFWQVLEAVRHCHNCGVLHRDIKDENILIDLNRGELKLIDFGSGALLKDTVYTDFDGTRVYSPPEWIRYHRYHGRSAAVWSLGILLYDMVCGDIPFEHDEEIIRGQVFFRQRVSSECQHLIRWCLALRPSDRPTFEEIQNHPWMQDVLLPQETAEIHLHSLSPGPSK

Structure (SMILES)	IC50 (PIM1 (h))	IC50 (Haspin (h))	IC50 (CDKL3(h))	IC50 (CDKL4(h))
Cn1cc(-c2ccc3scc(-c4cnn(Cc5ccccc5)c4)c3n2)cn1	20 to 99 nM	100 to 499 nM	500 to 3000 nM	100 to 499 nM
Fc1cc(-c2ccc3scc(-c4ccccc4)c3n2)cc(F)c1F [Preparative Example 122, 3-phenyl-5-(3,4,5-trifluorophenyl)thieno[3,2-b]pyridine]	3000 to 10000 nM	3000 to 10000 nM	3000 to 10000 nM	3000 to 10000 nM
Cn1cc(-c2cc(Cl)c3scc(-c4ccncc4)c3n2)cn1 [Preparative Example 162, 7-chloro-5-(1-methyl-1H-pyrazol-4-yl)-3-(pyridin-4-yl)thieno[3,2-b]pyridine]	500 to 3000 nM	500 to 3000 nM	100 to 499 nM	100 to 499 nM
Cc1cc(-c2csc3ccc(-c4cnn(C)c4)nc23)ccn1 [Preparative Example 15, 5-(1-methyl-1H-pyrazol-4-yl)-3-(2-methylpyridin-4-yl)-thieno[3,2-b]pyridine]	100 to 499 nM	100 to 499 nM	100 to 499 nM	100 to 499 nM
c1ccc(-c2csc3ccc(-c4ccoc4)nc23)cc1 [Preparative Example 123, 5-(furan-3-yl)-3-phenylthieno[3,2-b]pyridine]	3000 to 10000 nM	3000 to 10000 nM	3000 to 10000 nM	3000 to 10000 nM
Cn1ncc(-c2ccc3scc(-c4ccncc4)c3n2)c1CC1CC1 [Preparative Example 82, 5-(5-(cyclopropylmethyl)-1-methyl-1H-pyrazol-4-yl)-3-(pyridin-4-yl)thieno[3,2-b]pyridine]	20 to 99 nM	100 to 499 nM	500 to 3000 nM	500 to 3000 nM
FC(F)(F)n1cc(-c2ccc3scc(-c4ccncc4)c3n2)cn1 [Preparative Example 78, 3-(pyridin-4-yl)-5-(1-(trifluoromethyl)-1H-pyrazol-4-yl)thieno[3,2-b]pyridine]	3000 to 10000 nM	3000 to 10000 nM	500 to 3000 nM	500 to 3000 nM
Cn1cc(-c2ccc3scc(-c4cnn(C)c4)c3n2)cn1 [Preparative Example 63, 3,5-bis(1-methyl-1H-pyrazol-4-yl)thieno[3,2-b]pyridine]	100 to 499 nM	100 to 499 nM	100 to 499 nM	100 to 499 nM
Cn1cc(-c2ccc3scc(-c4ccns4)c3n2)cn1 [Preparative Example 67, 3-(isothiazol-5-yl)-5-(1-methyl-1H-pyrazol-4-yl)thieno[3,2-b]pyridine]	100 to 499 nM	20 to 99 nM	20 to 99 nM	20 to 99 nM
Cn1cc(-c2ccc3scc(Nc4ccccc4)c3n2)cn1 [Preparative Example 76, 5-(1-methyl-1H-pyrazol-4-yl)-N-phenylthieno[3,2-b]pyridin-3-amine]	100 to 499 nM	100 to 499 nM	20 to 99 nM	20 to 99 nM
